# Several values for one entry are separate records, joined by “and”; a condition that tells them apart may be missing. Equal entries are not always repeated.
# Key:
# [1] = test system: breast cancer xenograft models; conditions: alisertib added to either paclitaxel or docetaxel; cited from earlier work
# [2] = target: Pgp (Homo sapiens, UniProt P08183); conditions: cell culture model; cited from earlier work
# [3] = phase II trial, dose modifications in ER+/ERBB2-negative cohort (safety population); assay type: in vivo, human
# Description: (§1) Administration of 5 μg/kg filgrastim was allowed for treatment-limiting neutropenia, and loperamide was used to treat diarrhea but was not allowed prophylactically in cycle 1.
# Incidence and grades of AEs for all patients were analyzed using the safety population which included all patients (eligible and ineligible) who received at least 1 dose of study drug. Toxic effects were reported and tabulated by numbers and frequencies for all related AEs. SAS statistical software version 9.4 (SAS Institute) was used for all data analysis. Data were analyzed from March through May 2019.
# [4] = test system: TN metastatic or locally recurrent breast cancer; experiment: randomized phase II trial, TN cohort, efficacy; assay type: in vivo, human
# From the text: (§2) Other information about this phase II clinical trial is included in O'Shaughnessy et al., JAMA Network Open. 2021, 4(4):e214103, the entire contents of which are incorporated herein by reference.
# (§3) Eligible patients were postmenopausal women aged 18 years or older with metastatic or unresectable locally recurrent breast cancer that was histologically confirmed as ER+/HER2− invasive breast cancer (any progesterone receptor status), with Ki67 greater than 15% in primary or metastatic tissue, or grade 3 TNBC, to enrich for more highly proliferative cancers that may be more dependent on AURKA. HER2− negative was defined as immunohistochemistry (IHC) status of 0, 1+, or 2+(if IHC was 2+, a negative FISH test was required with a ratio <2.0 and an average HER2 copy number <4.0 signals/cell). ER-negative and progesterone receptor (PR)-negative status was defined as ER and PR less than 1% nuclei positive by IHC. Patients may have been treated with 0 or 1 chemotherapy regimen for advanced disease and with neo/adjuvant taxane therapy at least 12 months before the development of metastatic disease. An Eastern Cooperative Group (ECOG) performance status of 0 or 1 and adequate hematologic, cardiac, renal, and liver function were required. Eligible patients were required to have measurable disease by Response Evaluation Criteria in Solid Tumors (RECIST v 1.1) criteria, or lytic or mixed blastic/lytic bone-only disease. Patients with untreated or progressing brain metastases, or those who required corticosteroids, were not eligible.
# as §1
# (§4) Computed tomography (CT) of chest, abdomen, and pelvis was performed at screening. Chest and abdominal CT imaging were then performed every 8 weeks after initiation of treatment for the first 32 weeks of treatment and every 12 weeks thereafter for the duration of the treatment period, and at End of Treatment (EoT). Pelvic CT imaging was obtained at subsequent tumor assessments only if pelvic metastases were identified at screening. Bone scans were obtained on all patients at screening and then every 12 weeks in patients with bone metastases on their baseline bone scan.
# (§5) Patients were stratified as ER-positive, HER2-negative cohort and TN cohort based on results of ER, progesterone receptor, and HER2 measurements on their metastatic tissue, or, if not available, on their primary breast cancer tissue.
# The TN and ER-positive, HER2-negative cohorts were analyzed independently, and no change to the statistical plan was made based on the underaccrual to the TN group.
# (§6) Patients' baseline demographic and disease characteristics were summarized for the intent-to-treat population, which included all patients registered on study and were described by means with SDs and medians with ranges for continuous variables and by numbers with percentages for categorical variables. PFS was defined as the time from date of registration in the study to the date of first progression of disease or the date of death. Patients whose disease had not progressed were censored at the last contact date. OS was measured from the date of registration to the date of death. PFS and OS were estimated using Kaplan-Meier methods with 95% CIs in the intent-to-treat population and compared by log-rank tests.
# (§7) The protocol-defined evaluable population included all eligible patients who received at least 1 dose of study drug. CBR and ORR were examined using univariate and multivariate approaches with Fisher exact tests and the logistic regression models. The 95% CIs were estimated for CBR and ORR assuming binomial distribution. A χ^2 test was used to estimate the differences between CBRs and ORRs in the two arms.
# [5] = test system: ER-positive, HER2-negative metastatic or locally recurrent breast cancer; experiment: randomized phase II trial, ER+/HER2− cohort, efficacy; assay type: in vivo, human
# From the text: as §2
# as §3, with “Patients may have been treated with 0 or 1 chemotherapy regimen for advanced disease and with neo/adjuvant taxane therapy at least 12 months before the development of metastatic disease.” left out
# as §1, §4, §5, §6, §7
# [6] = phase II trial, adverse events (safety population, CTCAE v4.03); assay type: in vivo, human
# Description: Safety was assessed throughout the study. Adverse events were graded and reported according to the National Cancer Institute Common Terminology Criteria for Adverse Events (CTCAE version 4.03).
# [7] = Arm 1 (paclitaxel plus alisertib), n=66
# [8] = TN cohort, evaluable patients (P+A n=16, P n=12)
# [9] = ER+/HER2− cohort, evaluable patients (P+A n=58, P n=62)
# [10] = treatment-related, ER+/HER2− and TN cohorts
# Sequence of Pgp (P08183 whole entry): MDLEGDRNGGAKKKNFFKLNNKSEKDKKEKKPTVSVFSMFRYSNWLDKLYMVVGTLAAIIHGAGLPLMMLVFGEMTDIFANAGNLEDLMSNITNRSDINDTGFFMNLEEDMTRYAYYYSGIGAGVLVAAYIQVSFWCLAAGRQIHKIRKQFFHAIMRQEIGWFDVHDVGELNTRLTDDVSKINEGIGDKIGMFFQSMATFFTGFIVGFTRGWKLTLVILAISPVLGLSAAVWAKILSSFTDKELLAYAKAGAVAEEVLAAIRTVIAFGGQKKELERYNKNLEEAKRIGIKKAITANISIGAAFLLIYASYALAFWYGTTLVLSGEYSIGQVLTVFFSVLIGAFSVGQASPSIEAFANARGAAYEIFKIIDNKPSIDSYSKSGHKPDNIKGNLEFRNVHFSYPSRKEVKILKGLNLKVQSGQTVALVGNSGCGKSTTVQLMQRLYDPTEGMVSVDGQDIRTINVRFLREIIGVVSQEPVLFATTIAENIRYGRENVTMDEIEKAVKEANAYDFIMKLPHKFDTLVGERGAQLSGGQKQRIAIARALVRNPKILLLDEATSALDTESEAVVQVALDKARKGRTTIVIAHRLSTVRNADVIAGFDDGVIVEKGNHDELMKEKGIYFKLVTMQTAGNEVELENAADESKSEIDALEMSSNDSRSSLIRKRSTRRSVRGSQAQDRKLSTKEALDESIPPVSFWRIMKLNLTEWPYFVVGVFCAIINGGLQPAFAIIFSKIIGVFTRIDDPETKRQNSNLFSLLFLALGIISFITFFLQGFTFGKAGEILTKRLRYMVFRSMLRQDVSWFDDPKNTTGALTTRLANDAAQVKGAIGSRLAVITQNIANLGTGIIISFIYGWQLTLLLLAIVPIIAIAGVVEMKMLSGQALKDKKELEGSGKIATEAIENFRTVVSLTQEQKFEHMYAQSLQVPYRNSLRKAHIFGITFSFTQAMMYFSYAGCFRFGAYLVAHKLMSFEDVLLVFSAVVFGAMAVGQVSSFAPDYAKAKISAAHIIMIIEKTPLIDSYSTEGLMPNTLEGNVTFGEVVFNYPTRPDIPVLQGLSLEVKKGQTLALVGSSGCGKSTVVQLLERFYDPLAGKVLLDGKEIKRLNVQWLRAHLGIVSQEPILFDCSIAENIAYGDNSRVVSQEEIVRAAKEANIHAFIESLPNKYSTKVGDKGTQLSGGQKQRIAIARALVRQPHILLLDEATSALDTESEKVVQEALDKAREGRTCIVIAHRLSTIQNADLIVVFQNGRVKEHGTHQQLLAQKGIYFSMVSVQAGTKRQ
compound,measurement,setting,value
"COc1cc(Nc2ncc3c(n2)-c2ccc(Cl)cc2C(c2c(F)cccc2OC)=NC3)ccc1C(=O)O [Alisertib, 4-{[9-chloro-7-(2-fluoro-6-methoxyphenyl)-5H-pyrimido[5,4-d][2]benzazepin-2-yl]amino}-2-methoxybenzoic acid]",effect of combination in breast cancer xenograft models,[1],Synergistic or additive effects
same,Pgp-mediated efflux of paclitaxel,[2],inhibited Pgp-mediated efflux of paclitaxel
same,Patients with both dose delay and reduction,[3]; [7],(62.1) %
same,Patients with dose delay alone,[3]; [7],(18.2) %
same,Patients with dose discontinuation,[3]; [7],(30.3) %
same,Patients with dose increased,[3]; [7],(1.5) %
same,Patients with dose reduction alone,[3]; [7],(7.6) %
same,Patients with both dose delay and reduction,"[3]; Arm 1 (paclitaxel plus alisertib), n=66, listed as alisertib",62.1%
"CC(=O)O[C@H]1C(=O)[C@@]2(C)[C@H]([C@H](OC(=O)c3ccccc3)[C@]3(O)C[C@H](OC(=O)[C@H](O)[C@@H](NC(=O)c4ccccc4)c4ccccc4)C(C)=C1C3(C)C)[C@]1(OC(C)=O)CO[C@@H]1C[C@@H]2O [Paclitaxel, (2α,4α,5β,7β,10β,13α)-4,10-Bis(acetyloxy)-13-{[(2R,3S)-3-(benzoylamino)-2-hydroxy-3-phenylpropanoyl]oxy}-1,7-dihydroxy-9-oxo-5,20-epoxytax-11-en-2-yl benzoate]",median (IQR) PFS,"[4]; 35 patients with TN MBC, intent-to-treat, listed as paclitaxel alone",5.7 (2.9-8.2) months and 5.7 months
same,Best Overall Response: CR,[4]; [8],0%
same,Best Overall Response: PD,[4]; [8],2 (16.7) %
same,Best Overall Response: PR,[4]; [8],5 (41.7) %
same,Best Overall Response: SD,[4]; [8],5 (41.7) %
same,CBR (CR + PR + SD ≥ 6 months),[4]; [8],7 (58.3) %
same,ORR (CR + PR),[4]; [8],5 (41.7) %
same,median (IQR) OS,[4]; median follow-up 13.7 months,12.7 (6.8-23.5) months
same,Patients with both dose delay and reduction,[3]; [7],(16.7) %
same,Patients with dose delay alone,[3]; [7],(63.6) %
same,Patients with dose discontinuation,[3]; [7],(16.7) %
same,Patients with dose increased,[3]; [7],(3.0) %
same,Patients with dose reduction alone,[3]; [7],(1.5) %
same,Patients with dose delay alone,"[3]; Arm 1 (paclitaxel plus alisertib), n=66, listed as paclitaxel",63.6%
same,Patients with both dose delay and reduction,"[3]; Arm 2 (paclitaxel alone), n=70",(31.4) %
same,Patients with dose delay alone,"[3]; Arm 2 (paclitaxel alone), n=70",(14.3) %
same,Patients with dose discontinuation,"[3]; Arm 2 (paclitaxel alone), n=70",(11.4) %
same,Patients with dose increased,"[3]; Arm 2 (paclitaxel alone), n=70",0%
same,Patients with dose reduction alone,"[3]; Arm 2 (paclitaxel alone), n=70",(2.9) %
same,Patients with both dose delay and reduction,"[3]; Arm 2 (paclitaxel alone), n=70, listed as paclitaxel alone",31.4%
same,median (IQR) PFS in patients previously treated with palbociclib,"[5]; 30 patients pretreated with palbociclib for MBC (16 P, 14 P+A), listed as paclitaxel alone",5.6 (3.0-10.6) months and 5.6 months
same,CBR in patients pretreated with palbociclib,[5]; ER+/HER2− cohort,37.5%
same,Best Overall Response: CR,[5]; [9],0%
same,Best Overall Response: PD,[5]; [9],8 (12.9) %
same,Best Overall Response: SD,[5]; [9],33 (53.2) %
same,CBR (CR + PR + SD ≥ 6 months),"[5]; ER+/HER2− cohort, evaluable patients (P+A n=58, P n=62), listed as P",35 (56.5) %
same,CBR (CR + PR + SD ≥ 6 months),"[5]; ER+/HER2− cohort, evaluable patients (P+A n=58, P n=62), listed as paclitaxel alone",56.5%
same,estimated PFS at 12 months,"[5]; ER-positive, HER2-negative MBC",15.4%
same,median (IQR) PFS,"[5]; ER-positive, HER2-negative MBC, intent-to-treat, listed as paclitaxel alone",7.1 (3.8-10.6) months and 7.1 months
same,median (IQR) OS,[5]; median follow-up 22 months,25.1 (11.0-31.4) months
same,"grade 3 or 4 anemia, patients",[6]; all patients combined,1.2%
same,"grade 3 or 4 diarrhea, patients",[6]; all patients combined,0%
same,"grade 3 or 4 neutropenia, patients",[6]; all patients combined,16.4%
same,"grade 3 or 4 stomatitis or oral mucositis, patients",[6]; all patients combined,0%
same,"grade 3 or 4 neuropathy, patients",[6]; in vivo,11.40%
same,patients who received standard-dose (5 μg/kg) filgrastim,[6]; in vivo,15.70%
same,Anemia Grade1,[6]; [10],5 (5.9) n (%)
same,Anemia Grade2,[6]; [10],5 (5.9) n (%)
same,Anemia Grade3,[6]; [10],1 (1.2) n (%)
same,Anemia Grade4,[6]; [10],0 n (%)
same,Anemia Total,[6]; [10],11 (12.9) n (%)
same,Diarrhea Grade1,[6]; [10],9 (10.6) n (%)
same,Diarrhea Grade2,[6]; [10],2 (2.4) n (%)
same,Diarrhea Grade3,[6]; [10],0 n (%)
same,Diarrhea Grade4,[6]; [10],0 n (%)
same,Diarrhea Total,[6]; [10],11 (12.9) n (%)
same,Dizziness Grade1,[6]; [10],2 (2.4) n (%)
same,Dizziness Grade2,[6]; [10],0 n (%)
same,Dizziness Grade3,[6]; [10],0 n (%)
same,Dizziness Grade4,[6]; [10],0 n (%)
same,Dizziness Total,[6]; [10],2 (2.4) n (%)
same,Fatigue Grade1,[6]; [10],26 (30.6) n (%)
same,Fatigue Grade2,[6]; [10],6 (7.1) n (%)
same,Fatigue Grade3,[6]; [10],2 (2.4) n (%)
same,Fatigue Grade4,[6]; [10],0 n (%)
same,Fatigue Total,[6]; [10],34 (40.0) n (%)
same,Febrile neutropenia Grade1,[6]; [10],0 n (%)
same,Febrile neutropenia Grade2,[6]; [10],0 n (%)
same,Febrile neutropenia Grade3,[6]; [10],0 n (%)
same,Febrile neutropenia Grade4,[6]; [10],0 n (%)
same,Febrile neutropenia Total,[6]; [10],0 n (%)
same,Headache Grade1,[6]; [10],4 (4.7) n (%)
same,Headache Grade2,[6]; [10],1 (1.2) n (%)
same,Headache Grade3,[6]; [10],0 n (%)
same,Headache Grade4,[6]; [10],0 n (%)
same,Headache Total,[6]; [10],5 (5.9) n (%)
same,Leukopenia Grade1,[6]; [10],2 (2.4) n (%)
same,Leukopenia Grade2,[6]; [10],1 (1.2) n (%)
same,Leukopenia Grade3,[6]; [10],2 (2.4) n (%)
same,Leukopenia Grade4,[6]; [10],0 n (%)
same,Leukopenia Total,[6]; [10],5 (5.9) n (%)
same,Mucositis oral Grade1,[6]; [10],4 (4.7) n (%)
same,Mucositis oral Grade2,[6]; [10],0 n (%)
same,Mucositis oral Grade3,[6]; [10],0 n (%)
same,Mucositis oral Grade4,[6]; [10],0 n (%)
same,Mucositis oral Total,[6]; [10],4 (4.7) n (%)
same,Nausea Grade1,[6]; [10],19 (22.4) n (%)
same,Nausea Grade2,[6]; [10],4 (4.7) n (%)
same,Nausea Grade3,[6]; [10],1 (1.2) n (%)
same,Nausea Grade4,[6]; [10],0 n (%)
same,Nausea Total,[6]; [10],24 (28.2) n (%)
same,Neuropathy Grade1,[6]; [10],9 (12.9) n (%)
same,Neuropathy Grade2,[6]; [10],8 (11.4) n (%)
same,Neuropathy Grade3,[6]; [10],8 (11.4) n (%)
same,Neuropathy Grade4,[6]; [10],0 n (%)
same,Neuropathy Total,[6]; [10],25 (35.7) n (%)
same,Neutropenia Grade1,[6]; [10],1 (1.2) n (%)
same,Neutropenia Grade2,[6]; [10],3 (3.5) n (%)
same,Neutropenia Grade3,[6]; [10],11 (12.9) n (%)
same,Neutropenia Grade4,[6]; [10],3 (3.5) n (%)
same,Neutropenia Total,[6]; [10],18 (21.2) n (%)
same,Stomatitis Grade1,[6]; [10],7 (8.2) n (%)
same,Stomatitis Grade2,[6]; [10],0 n (%)
same,Stomatitis Grade3,[6]; [10],0 n (%)
same,Stomatitis Grade4,[6]; [10],0 n (%)
same,Stomatitis Total,[6]; [10],7 (8.2) n (%)
same,Thrombocytopenia Grade1,[6]; [10],0 n (%)
same,Thrombocytopenia Grade2,[6]; [10],0 n (%)
same,Thrombocytopenia Grade3,[6]; [10],0 n (%)
same,Thrombocytopenia Grade4,[6]; [10],0 n (%)
same,Thrombocytopenia Total,[6]; [10],0 n (%)

# Reference: patent publication US20250268909A1, “Combination Therapy” (US Oncology Corporate, Inc., priority 2022, published 2025)
